Test [1] concerns Sprague-Dawley Rats. Kind of test: Multiple Oral Gavage Toxicity Study of Cyclosporin H in Sprague-Dawley Rats with Toxicokinetics, hematology. It is filed as in vivo. The following applies: animals to which CsH had been administered (see Table 1).
Test [2] relates to calcineurin mediated signaling. The following applies: cited from earlier work.
In test [3] the target is T1, hFPR (Homo sapiens, UniProt P21462).
T1 sequence (P21462 1-350): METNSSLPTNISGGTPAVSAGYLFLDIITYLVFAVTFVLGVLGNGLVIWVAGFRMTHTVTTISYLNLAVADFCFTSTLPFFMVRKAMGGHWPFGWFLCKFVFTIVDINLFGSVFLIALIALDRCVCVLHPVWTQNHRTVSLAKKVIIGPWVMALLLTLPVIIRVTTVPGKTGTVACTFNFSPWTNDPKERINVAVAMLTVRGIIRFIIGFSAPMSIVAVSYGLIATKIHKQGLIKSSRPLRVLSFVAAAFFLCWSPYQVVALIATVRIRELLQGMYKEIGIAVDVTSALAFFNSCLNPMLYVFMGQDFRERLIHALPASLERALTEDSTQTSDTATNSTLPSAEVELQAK
Kind of test: radionuclide binding competition assay using fMLF peptide as internal standard. An excerpt:
Provided herein is the use of formyl peptide receptor antagonists in the therapy of diseases or disorders involving inappropriate, exaggerated, or prolonged neutrophil response (i.e. recruitment and/or activation). […] Thus the cyclosporins of this invention include dihydroCsH, as well as compounds of Formula I that maintain FPR inhibitory activity.

Consider `C/C=C/C[C@@H](C)[C@@H](O)[C@H]1C(=O)N[C@@H](CC)C(=O)N(C)CC(=O)N(C)[C@@H](CC(C)C)C(=O)N[C@@H](C(C)C)C(=O)N(C)[C@@H](CC(C)C)C(=O)N[C@@H](C)C(=O)N[C@H](C)C(=O)N(C)[C@@H](CC(C)C)C(=O)N(C)[C@@H](CC(C)C)C(=O)N(C)[C@H](C(C)C)C(=O)N1C` [CsH, Cyclosporine H], for which the circulating eosinophils result in test [1] was “significant decrease”. The “effect on calcineurin mediated signaling” value in test [2] is “no effect”. In the case of `CCCC[C@@H](C)[C@@H](O)[C@H]1C(=O)N[C@@H](CC)C(=O)N(C)CC(=O)N(C)[C@@H](CC(C)C)C(=O)N[C@@H](C(C)C)C(=O)N(C)[C@@H](CC(C)C)C(=O)N[C@@H](C)C(=O)N[C@H](C)C(=O)N(C)[C@@H](CC(C)C)C(=O)N(C)[C@@H](CC(C)C)C(=O)N(C)[C@H](C(C)C)C(=O)N1C` [dihydroCsH, Dihydrocyclosporin H], in test [3], the IC50 (in general, the midpoint of a concentration-inhibition curve) amounted to 7.99 nM. This lies in the single-digit nanomolar range.

The record behind these values is US20120231994A1, “ANTAGONISM OF HUMAN FORMYL PEPTIDE RECEPTOR FOR TREATMENT OF DISEASE” (NIKAN PHARMACEUTICALS, LLC, priority 2009, published 2012).
